“Also recorded” adds a separate entry of the source. Read-outs that look alike come from different tables or passages of the source.
Assays:
Stat1 = molecular target: T1, Stat1 (Homo sapiens, UniProt P42224); test: Immunoblot assay: IFN-γ-mediated phosphorylation of Stat1 in HepG2 cells; type: cell-based; details: 300 μM, 1 hour at 37° C. before IFN-γ stimulation
T1 construct: endogenous in cells; host or cells: HepG2
T1 sequence (P42224 1-750): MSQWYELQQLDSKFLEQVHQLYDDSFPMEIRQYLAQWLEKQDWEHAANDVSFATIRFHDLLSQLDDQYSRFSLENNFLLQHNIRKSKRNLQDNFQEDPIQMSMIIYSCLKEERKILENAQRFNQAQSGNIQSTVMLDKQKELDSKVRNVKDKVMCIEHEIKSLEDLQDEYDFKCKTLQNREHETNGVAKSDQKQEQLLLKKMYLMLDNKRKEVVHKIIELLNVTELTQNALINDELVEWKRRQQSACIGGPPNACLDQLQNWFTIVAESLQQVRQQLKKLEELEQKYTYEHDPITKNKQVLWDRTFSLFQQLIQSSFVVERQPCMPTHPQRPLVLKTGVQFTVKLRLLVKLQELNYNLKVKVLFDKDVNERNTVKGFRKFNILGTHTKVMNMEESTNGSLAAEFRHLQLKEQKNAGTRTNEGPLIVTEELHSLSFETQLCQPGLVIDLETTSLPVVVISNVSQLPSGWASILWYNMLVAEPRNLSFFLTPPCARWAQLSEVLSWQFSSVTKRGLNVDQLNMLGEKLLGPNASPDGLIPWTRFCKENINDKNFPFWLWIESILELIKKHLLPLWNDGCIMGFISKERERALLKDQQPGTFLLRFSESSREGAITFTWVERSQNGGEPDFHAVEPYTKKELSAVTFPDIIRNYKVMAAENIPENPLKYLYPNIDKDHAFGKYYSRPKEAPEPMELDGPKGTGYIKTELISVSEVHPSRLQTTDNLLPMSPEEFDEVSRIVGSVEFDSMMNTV
Method: Immunoblot assay. The human hepatocellular carcinoma cell line (HepG2) was grown in 6-well plates under standard conditions. Cells were pretreated with compounds (0, 1, 3, 10, 30, 100 and 300 uM) for 1 hour then stimulated under optimal conditions with either interferon gamma (IFN-γ; 30 ng/ml for 30 min) to activate Stat1 or interleukin-6 (IL-6; 30 ng/ml for 30 min) to activate Stat3 (30-31). Cultures were then harvested and proteins extracted using high-salt buffer, as described (Shao et al., 2006). Briefly, extracts were mixed with 2× sodium dodecyl sulfate (SDS) sample buffer (125 mmol/L Tris-HCL pH 6.8; 4% SDS; 20% glycerol; 10% 2-mercaptoethanol) at a 1:1 ratio and heated for 5 minutes at 100° C. Proteins (20 μg) were separated by 7.5% SDS-PAGE and transferred to polyvinylidene fluoride (PVDF) membrane (Millipore, Waltham, Mass.) and immunoblotted. Prestained molecular weight markers (Biorad, Hercules, Calif.) were included in each gel. Membranes were probed serially with antibody against Stat1 pY^701 or Stat3 pY^705 followed by antibody against Stat1 or Stat3 (Transduction labs, Lexington, Ky.) then antibody against β-actin (Abcam, Cambridge, Mass.). Membranes were stripped between antibody probing using Restore™ Western Blot Stripping Buffer (Thermo Fisher Scientific Inc., Waltham, Mass.) per the manufacturer's instructions. Horseradish peroxidase-conjugated goat-anti-mouse IgG was used as the secondary antibody (Invitrogen Carlsbad, Calif.) and the membranes were developed with enhanced chemiluminescence (ECL) detection system (Amersham Life Sciences Inc.; Arlington Heights, Ill.).
EXP IIC. Ligand-mediated pStat3 and pStat1 inhibition assays. […] Briefly, human hepatocellular carcinoma cells (HepG2) are grown in 6-well plates and pretreated with compounds (0, 0.1, 0.3, 1, 3, 10, 30, 100 μM) for 1 hour then stimulated under optimal conditions with either interleukin-6 (IL-6; 30 ng/ml for 30 min) to activate Stat3 or interferon gamma (IFN-γ; 30 ng/ml for 30 min) to activate Stat1. Cells are harvested and proteins extracted using high-salt buffer, mixed with 2× sodium dodecyl sulfate (SDS) sample buffer (125 mmol/L Tris-HCL pH 6.8; 4% SDS; 20% glycerol; 10% 2-mercaptoethanol) at a 1:1 ratio then heated for 5 minutes at 100° C. Proteins (20 μg) are separated by 7.5% SDS-PAGE and transferred to polyvinylidene fluoride (PVDF) membrane (Millipore, Waltham, Mass.) and immunoblotted. Membranes are probed serially with antibody against Stat1 pY701 or Stat3 pY705 followed by antibody against Stat 1 or Stat3 (Transduction labs, Lexington, Ky.) then antibody against β-actin (Abcam, Cambridge, Mass.). Membranes are stripped between antibody probings using Restore™ Western Blot Stripping Buffer (Thermo Fisher Scientific Inc., Waltham, Mass.) per the manufacturer's instructions. Horseradish peroxidase-conjugated goat-anti-mouse IgG is used as the secondary antibody (Invitrogen Carlsbad, Calif.) and the membranes are developed with enhanced chemiluminescence (ECL) detection system (Amersham Life Sciences Inc.; Arlington Heights, Ill.). Band intensities are quantified by densitometry. The value of each pStat3 band is divided by its corresponding total Stat3 band intensity; the results are normalized to the DMSO-treated control value. This value was plotted as a function of the log compound concentration. The best-fitting curve is determined using 4-Parameter Logistic Model/Dose Response/XLfit 4.2, IDBS software and was used to calculate the IC50 value.

Stat3 = molecular target: T2, Stat3 (Homo sapiens, UniProt P40763); test: Immunoblot assay: IL-6-mediated phosphorylation of Stat3 in HepG2 cells; type: cell-based
T2 construct: endogenous in cells; host or cells: HepG2
Method: Immunoblot assay. The human hepatocellular carcinoma cell line (HepG2) was grown in 6-well plates under standard conditions. […] Prestained molecular weight markers (Biorad, Hercules, Calif.) were included in each gel. […] Membranes were stripped between antibody probing using Restore™ Western Blot Stripping Buffer (Thermo Fisher Scientific Inc., Waltham, Mass.) per the manufacturer's instructions. Horseradish peroxidase-conjugated goat-anti-mouse IgG was used as the secondary antibody (Invitrogen Carlsbad, Calif.) and the membranes were developed with enhanced chemiluminescence (ECL) detection system (Amersham Life Sciences Inc.; Arlington Heights, Ill.).
Ligand-mediated pStat3 and pStat1 inhibition assays. […] Membranes are probed serially with antibody against Stat1 pY701 or Stat3 pY705 followed by antibody against Stat 1 or Stat3 (Transduction labs, Lexington, Ky.) then antibody against β-actin (Abcam, Cambridge, Mass.). Membranes are stripped between antibody probings using Restore™ Western Blot Stripping Buffer (Thermo Fisher Scientific Inc., Waltham, Mass.) per the manufacturer's instructions. Horseradish peroxidase-conjugated goat-anti-mouse IgG is used as the secondary antibody (Invitrogen Carlsbad, Calif.) and the membranes are developed with enhanced chemiluminescence (ECL) detection system (Amersham Life Sciences Inc.; Arlington Heights, Ill.). Band intensities are quantified by densitometry. The value of each pStat3 band is divided by its corresponding total Stat3 band intensity; the results are normalized to the DMSO-treated control value. This value was plotted as a function of the log compound concentration. The best-fitting curve is determined using 4-Parameter Logistic Model/Dose Response/XLfit 4.2, IDBS software and was used to calculate the IC50 value.

GFP-Stat3α = molecular target: T3, GFP-Stat3α (Homo sapiens, UniProt P40763); test: High-throughput fluorescence microscopy (HTFM), cytoplasm-to-nucleus translocation inhibition in MEF/GFP-Stat3α cells; type: cell-based, murine
T3 construct: expressed in transfected cells; host or cells: murine embryonic fibroblasts (MEF) deficient in endogenous Stat3
Method: Confocal and highthroughput fluorescence microscopy (HTFM) of MEF/GFP-Stat3α cells were performed as described (Huang et al., 2007). […] For HTFM, cells were seeded into 96-well CC3 plates at a density of 5,000 cells/well using an automated plating system. Cells were cultured under standard conditions until 85-90% confluent. Cells were pretreated with compound for 1 hour at 37° C. then stimulated with IL-6 (200 ng/ml) and IL-6sR (250 ng/ml) for 30 minutes. Cells fixed with 4% formaldehyde in PEM Buffer (80 mM Potassium PIPES, pH 6.8, 5 mM EGTA pH 7.0, 2 mM MgCl2) for 30 minutes at 4° C., quenched in 1 mg/ml of NaBH4 (Sigma) in PEM buffer and counterstained for 1 min in 4,6-diamidino-2-phenylindole (DAPI; Sigma; 1 mg/ml) in PEM buffer. […] Plates were analyzed by automated HTFM using the Cell Lab IC Image Cytometer (IC100) platform and CytoshopVersion 2.1 analysis software (Beckman Coulter). Nuclear translocation is quantified by using the fraction localized in the nucleus (FLIN) measurement (Sharp et al., 2006).
High throughput fluorescence microscopy (HTFM), cytoplasm-to-nucleus translocation inhibition assays. […] Briefly, cells are seeded into 96-well CC3 plates at a density of 5,000 cells/well and cultured under standard conditions until 85-90% confluent. Cells are pre-treated with compound for 1 hour at 37° C. then stimulated with IL-6 (100 ng/ml) and IL-6sR (150 ng/ml) for 30 minutes. Cells are fixed with 4% formaldehyde in PEM Buffer (80 mM Potassium PIPES, pH 6.8, 5 mM EGTA pH 7.0, 2 mM MgCl2) for 30 minutes at 4° C., quenched in 1 mg/ml of NaBH4 (Sigma) in PEM buffer and counterstained for 1 min in 4,6-diamidino-2-phenylindole (DAPI; Sigma; 1 mg/ml) in PEM buffer. Plates are analyzed by automated HTFM using the Cell Lab IC Image Cytometer (IC100) platform and CytoshopVersion 2.1 analysis software (Beckman Coulter).
Nuclear translocation is quantified by using the fraction localized in the nucleus (FLIN) measurement. […] The best-fitting curve and IC50 value are determined using 4-Parameter LogisticModel/Dose Response/XLfit 4.2, IDBS software.

Stat3:hSIE complexes = molecular target: T4, Stat3:hSIE complexes (Homo sapiens, UniProt P40763); test: Electrophoretic mobility shift assay (EMSA) with hSIE probe, extracts of IL-6-stimulated HepG2 cells; type: biochemical; details: 300 μM, 60 minutes at 37° C.
T4 construct: endogenous in cells; host or cells: HepG2
Method: Electrophoretic Mobility Shift Assay (EMSA): EMSA was performed using the hSIE radiolabeled duplex oligonucleotide as a probe as described (Tweardy et al., 1995). Briefly, high salt extracts were prepared from HepG2 cells incubated without or with IL-6 (30 ng/ml) for 30 minutes. Protein concentration was determined by Bradford Assay and 20 ug of extract was incubated with compound (300 uM) for 60 minutes at 37° C. […] Gels were dried and autoradiographed.

human leukemic cell line = test: Leukemic cell line (AML) apoptosis assay; type: cell-based
MDA-MB-231 = details: 5 mg/kg every 2-3 days; cited from earlier work
[1] = tested on: breast cancer cells with constitutively activated Stat3; details: cited from earlier work
[2] = HepG2, compound 1 hour, IL-6 30 ng/ml 30 min, read-out: pStat3 IC50 (IL-6-mediated phosphorylation of Stat3)
[3] = MEF/GFP-Stat3α, IL-6 200 ng/ml and IL-6sR 250 ng/ml 30 min, read-out: HTM IC50 (ligand-mediated nuclear translocation of GFP-Stat3α)

T2 sequence (P40763 2-770 limits assumed): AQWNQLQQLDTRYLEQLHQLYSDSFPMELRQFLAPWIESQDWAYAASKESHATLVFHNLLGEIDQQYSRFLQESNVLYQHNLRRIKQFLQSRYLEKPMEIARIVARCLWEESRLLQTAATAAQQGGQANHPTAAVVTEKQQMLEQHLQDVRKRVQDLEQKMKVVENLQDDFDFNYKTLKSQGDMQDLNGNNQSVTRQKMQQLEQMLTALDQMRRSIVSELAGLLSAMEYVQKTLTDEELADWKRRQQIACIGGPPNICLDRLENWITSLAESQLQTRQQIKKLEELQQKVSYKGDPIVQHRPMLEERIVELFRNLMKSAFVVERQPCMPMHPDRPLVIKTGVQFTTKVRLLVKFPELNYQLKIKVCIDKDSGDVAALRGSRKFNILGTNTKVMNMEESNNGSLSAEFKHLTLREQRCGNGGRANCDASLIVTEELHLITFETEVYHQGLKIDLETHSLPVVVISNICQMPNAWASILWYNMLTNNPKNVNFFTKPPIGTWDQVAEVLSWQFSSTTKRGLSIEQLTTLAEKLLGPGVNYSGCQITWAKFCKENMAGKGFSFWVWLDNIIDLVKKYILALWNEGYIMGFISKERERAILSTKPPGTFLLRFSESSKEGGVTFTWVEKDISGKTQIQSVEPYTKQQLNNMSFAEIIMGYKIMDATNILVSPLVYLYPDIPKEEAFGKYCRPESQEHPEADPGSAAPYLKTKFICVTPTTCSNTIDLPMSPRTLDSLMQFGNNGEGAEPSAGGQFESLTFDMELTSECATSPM
T3 sequence (P40763 whole entry): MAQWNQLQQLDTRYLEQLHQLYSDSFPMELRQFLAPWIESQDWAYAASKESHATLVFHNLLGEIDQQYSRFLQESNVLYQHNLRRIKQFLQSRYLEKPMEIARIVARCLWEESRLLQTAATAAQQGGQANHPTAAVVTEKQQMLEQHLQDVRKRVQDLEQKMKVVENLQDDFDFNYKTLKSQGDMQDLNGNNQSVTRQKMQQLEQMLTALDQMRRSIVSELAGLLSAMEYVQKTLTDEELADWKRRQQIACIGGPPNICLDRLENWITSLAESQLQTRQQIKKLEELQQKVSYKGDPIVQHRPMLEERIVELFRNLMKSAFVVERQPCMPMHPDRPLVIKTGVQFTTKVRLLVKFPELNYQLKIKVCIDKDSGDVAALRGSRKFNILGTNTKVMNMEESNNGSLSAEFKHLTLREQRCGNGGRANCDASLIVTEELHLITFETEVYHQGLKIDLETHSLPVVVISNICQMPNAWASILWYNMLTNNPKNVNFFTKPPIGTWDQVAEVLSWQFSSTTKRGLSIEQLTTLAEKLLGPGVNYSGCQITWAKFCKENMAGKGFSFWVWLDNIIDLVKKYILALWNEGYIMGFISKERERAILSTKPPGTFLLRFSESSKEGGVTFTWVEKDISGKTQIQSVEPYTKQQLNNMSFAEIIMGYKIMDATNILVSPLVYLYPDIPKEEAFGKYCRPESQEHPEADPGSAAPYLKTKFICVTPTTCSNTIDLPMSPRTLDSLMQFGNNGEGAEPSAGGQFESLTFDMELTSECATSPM
T4 sequence (P40763 2-770 limits assumed, one chain of several): as the sequence (P40763 2-770 limits assumed) above

O=C(O)c1ccc(C=CC(=O)c2ccc3c(c2)OCCO3)cc1 [Cpd3, 4-[3-(2,3-dihydro-1,4-benzodioxin-6-yl)-3-oxo-1-propen-1-yl]benzoic acid]
Stat1 phosphorylation blocked (Stat1): did not | IC50 (Stat3; [2]): 91 µM | IC50 (GFP-Stat3α; [3]): 131 µM | amount of hSIE shifted (Stat3:hSIE band intensity) (Stat3:hSIE complexes): reduced the amount of hSIE shifted by half or greater

CCOc1cc(C=C2C(=O)c3ccccc3C2=O)cc(Cl)c1OCc1cccc(C(=O)O)c1 [Cpd3-2, 3-({2-chloro-4-[(1,3-dioxo-1,3-dihydro-2H-inden-2-ylidene)methyl]-6-ethoxyphenoxy}methyl)benzoic acid]
Stat1 phosphorylation blocked (Stat1): did not | IC50 (Stat3; [2]): 144 µM | IC50 (GFP-Stat3α; [3]): 150 µM

COC(=O)Cc1c(C)c2ccc(OCc3ccc(C(=O)OC)cc3)c(C)c2oc1=O [Cpd3-7, methyl 4-({[3-(2-methyoxy-2-oxoethyl)-4,8-dimethyl-2-oxo-2H-chromen-7-yl]oxy}methyl)benzoate]
Stat1 phosphorylation blocked (Stat1): did not

CCN1C(=O)C(=Cc2ccc(-c3ccc(C(=O)O)cc3)o2)SC1=S [Cpd30, 4-{5-[(3-ethyl-4-oxo-2-thioxo-1,3-thiazolidin-5-ylidene)methyl]-2-furyl}benzoic acid]
Stat1 phosphorylation blocked (Stat1): did not

CCN1C(=O)C(=Cc2ccc(-c3cc(C(=O)O)ccc3Cl)o2)C(=O)N(CC)C1=S [Cpd30-12, 4-chloro-3-{5-[(1,3-diethyl-4,6-dioxo-2-thioxotetrahydro-5(2H)-pyrimidinylidene)methyl]-2-furyl}benzoic acid]
Stat1 phosphorylation blocked (Stat1): blocked | IC50 (Stat3): 60 µM | IC50 (GFP-Stat3α): > 300 µM

COc1ccc(S(=O)(=O)Nc2cc(-c3c(O)ccc4ccccc34)c(O)c3ccccc23)cc1 [Cpd188-9]
leukemic cell line apoptosis activity compared with parent Cpd188 (human leukemic cell line): one log better; also recorded: a log greater activity

Cc1ccc(S(=O)(=O)OCC(=O)Nc2ccc(C(=O)O)c(O)c2)cc1 [S3I-201]
growth of nude mice xenografts (MDA-MB-231): inhibited growth

O=[N+]([O-])c1ccc2c(c1)S(=O)(=O)C=C2 [Stattic]
active concentration range (binding, phosphorylation, translocation, DNA binding, apoptosis) [1]: 5 to 20 µM

From patent publication US20110312984A1, “STAT3 INHIBITORS” (priority 2008, published 2011)
